Assay results: US20060264460A1 (Wyeth, priority 2005, published 2006)

molecular target: T1, human Cot/Tpl2 kinase (Homo sapiens, UniProt P41279); assay: Tpl2/Cot kinase assay: GST-MEK1 phosphorylation detected by ELISA (DELFIA Eu); assay type: biochemical; conditions: 0.4 nM Tpl2, 35 nM GST-MEK1, 50 uM ATP, 1 h at 30° C.
T1 construct: human Cot/Tpl2 kinase construct encoding residues 30-398; 6His (N); made in house; host or cells: Sf9 insect cells, baculovirus system (BD Biosciences)
Procedure, shortened: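 His-tagged human Tpl2 from Sf9 cells, Ni-affinity and size-exclusion purified (monomer). 0.4 nM Tpl2 with 35 nM GST-MEK1, 50 uM ATP, MOPS pH 7.2, 1% DMSO, 1 h at 30° C; EDTA stop. MEK1 Ser217/221 phosphorylation detected by anti-phospho-MEK1 and Eu-labelled secondary ELISA; IC50 fitted.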

T1 sequence (P41279 30-398): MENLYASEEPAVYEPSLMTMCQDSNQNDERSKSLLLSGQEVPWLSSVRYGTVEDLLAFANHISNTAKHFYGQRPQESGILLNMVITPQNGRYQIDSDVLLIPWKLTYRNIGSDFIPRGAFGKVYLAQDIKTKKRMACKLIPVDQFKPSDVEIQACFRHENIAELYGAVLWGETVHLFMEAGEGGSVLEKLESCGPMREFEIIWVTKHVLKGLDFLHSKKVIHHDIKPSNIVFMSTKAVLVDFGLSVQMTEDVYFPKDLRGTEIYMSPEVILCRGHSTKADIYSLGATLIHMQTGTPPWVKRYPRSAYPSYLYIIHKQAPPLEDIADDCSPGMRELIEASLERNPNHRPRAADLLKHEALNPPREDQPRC

Going from Cc1cc(NCCN2CCOCC2)cc2c(Nc3cccc(Br)c3)c(C#N)cnc12 [Example 131, 4-(3-bromophenylamino)-8-methyl-6-(2-morpholinoethylamino)quinoline-3-carbonitrile] to COc1cc(NCCN2CCOCC2)cc2c(Nc3ccc(F)c(Cl)c3)c(C#N)cnc12 [Example 29, 4-(3-Chloro-4-fluoro-phenylamino)-8-methoxy-6-(2-morpholin-4-yl-ethylamino)-quinoline-3-carbonitrile], the IC50 falls from 16 µM to 5.2 µM (3.1-fold).

First: N#Cc1cnc2ccc(NCc3cccnc3)cc2c1Nc1ccc(C(N)=O)cc1 [Example 99, 4-(3-cyano-6-(pyridin-3-ylmethylamino)quinolin-4-ylamino)benzamide]
Second: N#Cc1cnc2c(Br)cc(NCc3cccnc3)cc2c1Nc1cccc(Cl)c1 [Example 70, 8-bromo-4-(3-chlorophenylamino)-6-(pyridin-3-ylmethylamino)quinoline-3-carbonitrile]
The IC50 of the first is 670-fold higher: 24.1 µM for the first, 0.036 µM for the second. The second is the more potent here.

Going from Cc1cccc(CNc2cc(C(=O)N(C)C)c3ncc(C#N)c(Nc4ccc(F)c(Cl)c4)c3c2)c1 [Example 92, 4-(3-chloro-4-fluorophenylamino)-3-cyano-N,N-dimethyl-6-(3-methylbenzylamino)quinoline-8-carboxamide] to Cc1cc(CNc2ccc3ncc(C#N)c(Nc4ccc(F)c(Cl)c4)c3c2)n[nH]1 [Example 31, 4-(3-Chloro-4-fluoro-phenylamino)-6-[(5-methyl-1 H-pyrazol-3-ylmethyl)-amino]-quinoline-3-carbonitrile], the IC50 falls from > 40 µM to 0.11 µM. The second is the more potent here.

Going from N#Cc1cnc2ccc(NCc3cccc[n+]3[O-])cc2c1NC1CCCCCC1 [Example 253, 4-(cycloheptylamino)-6-{[(1-oxidopyridin-2-yl)methyl]amino}quinoline-3-carbonitrile] to N#Cc1cnc2ccc(NCc3ccoc3)cc2c1Nc1ccc(F)c(Cl)c1 [Example 5, 4-(3-Chloro-4-fluoro-phenylamino)-6-[(furan-3-ylmethyl)-amino]-quinoline-3-carbonitrile], the IC50 falls from 1.4 µM to 0.37 µM (3.8-fold). The second is the more potent here.

Compared with CCCCc1ncc(CNc2cc(Br)c3ncc(C#N)c(Nc4ccc(F)c(Cl)c4)c3c2)[nH]1 [Example 107, 8-bromo-6-((2-butyl-1H-imidazol-5-yl)methylamino)-4-(3-chloro-4-fluorophenylamino)quinoline-3-carbonitrile], CC(C)c1nc[nH]c1CNc1cc(Br)c2ncc(C#N)c(Nc3ccc(F)c(Cl)c3)c2c1 [Example 115, 8-bromo-4-(3-chloro-4-fluorophenylamino)-6-((4-isopropyl-1H-imidazol-5-yl)methylamino)quinoline-3-carbonitrile] is 6.9-fold lower in IC50: 0.9 µM for the first, 0.13 µM for the second. The second is the more potent here.

First: N#Cc1cnc2c(Br)cc(NCc3nn[nH]c3-c3cccc(F)c3)cc2c1Nc1ccc(F)c(Cl)c1 [Example 119, 8-bromo-4-[(3-chloro-4-fluorophenyl)amino]-6-({[5-(3-fluorophenyl)-1H-1,2,3-triazol-4-yl]methyl}amino)quinoline-3-carbonitrile]
Second: N#Cc1cnc2c(Cl)cc(NCc3cncnc3)cc2c1Nc1ccc(F)c(Cl)c1 [Example 272, 8-Chloro-4-(3-chloro-4-fluoro-phenylamino)-6-[(pyrimidin-5-ylmethyl)-amino]-quinoline-3-carbonitrile]
The IC50 of the first is 7.4-fold higher: 0.35 µM for the first, 0.047 µM for the second.

Going from N#Cc1cnc2ccc(NCc3c[nH]c(=O)[nH]c3=O)cc2c1Nc1ccc(F)c(Cl)c1 [Example 228, 4-[(3-chloro-4-fluorophenyl)amino]-6-{[(2,4-dioxo-1,2,3,4-tetrahydropyrimidin-5-yl)methyl]amino}quinoline-3-carbonitrile] to N#Cc1cnc2ccc(NCc3cnc(S(=O)(=O)c4ccccc4)s3)cc2c1Nc1ccc(F)c(Cl)c1 [Example 245, 4-[(3-chloro-4-fluorophenyl)amino]-6-({[2-(phenylsulfonyl)-1,3-thiazol-5-yl]methyl}amino)quinoline-3-carbonitrile], the IC50 rises from 0.48 µM to 0.91 µM (1.9-fold).

First: N#Cc1cnc2c(C(F)(F)F)cc(NCc3cncnc3)cc2c1Nc1ccc(F)c(Cl)c1 [Example 240, 4-[(3-chloro-4-fluorophenyl)amino]-6-[(pyrimidin-5-ylmethyl)amino]-8-(trifluoromethyl)quinoline-3-carbonitrile]
Second: N#Cc1cnc2c(Cl)cc(NCc3cc4n(n3)CCO4)cc2c1Nc1ccc(F)c(Cl)c1 [Example 188, 8-chloro-4-(3-chloro-4-fluorophenylamino)-6-((2,3-dihydropyrazolo[5,1-b]oxazol-6-yl)methylamino)quinoline-3-carbonitrile]
The IC50 of the first is 3.2-fold higher: 0.19 µM for the first, 0.059 µM for the second.

Going from N#Cc1cnc2ccc(NCc3cnc[nH]3)cc2c1Nc1cccc(Br)c1 [Example 169, 6-((1H-imidazol-5-yl)methylamino)-4-(3-bromophenylamino)quinoline-3-carbonitrile] to CS(=O)(=O)NCCNc1cc(Cl)c2ncc(C#N)c(Nc3ccc(F)c(Cl)c3)c2c1 [Example 326, N-[2-({8-chloro-4-[(3-chloro-4-fluorophenyl)amino]-3-cyanoquinolin-6-yl}amino)ethyl]methanesulfonamide], the IC50 rises from 0.021 µM to 0.07 µM (3.3-fold).

same assay, conditions: Table 2; Tpl2/Cot kinase, GST-MEK1 substrate, 50 uM ATP

Going from N#Cc1cnc2c(Cl)cc(NCc3cncn3CCN3CCOCC3)cc2c1Nc1ccc(F)c(Cl)c1 [Example 489] to N#Cc1cnc2c(Cl)cc(NCc3cn(CCCN4CCNCC4)nn3)cc2c1Nc1ccc(F)c(Cl)c1 [Example 597], the IC50 rises from 0.062 µM to 0.16 µM (2.6-fold). The first is the more potent here.

Going from N#Cc1cnc2c(Br)cc(N(Cc3cn(CCN4CCOCC4)nn3)Cc3cn(CCN4CCOCC4)nn3)cc2c1Nc1ccc(F)c(Cl)c1 [Example 477] to CN(CCn1cc(CN(Cc2cn(CCN(C)C(=O)OC(C)(C)C)nn2)c2cc(Br)c3ncc(C#N)c(Nc4ccc(F)c(Cl)c4)c3c2)nn1)C(=O)OC(C)(C)C [Example 501], the IC50 falls from > 40 µM to 4.7 µM.

Compared with CC1CC(C)CN(CCCn2cc(CNc3cc(Cl)c4ncc(C#N)c(Nc5ccc(F)c(Cl)c5)c4c3)nn2)C1 (stereo not drawn) [Example 610], N#Cc1cnc2c(Br)cc(NCc3cn(CCCN4CCCNCC4)nn3)cc2c1Nc1ccc(F)c(Cl)c1 [Example 594] is 3.5-fold lower in IC50: 0.15 µM for the first, 0.043 µM for the second. The second is the more potent here.

Compared with CN(C)CCCn1cc(CNc2cc(Br)c3ncc(C#N)c(Nc4ccc(F)c(Cl)c4)c3c2)nn1 [Example 480], CN(C)CC(c1ccccc1)n1cc(CNc2cc(Cl)c3ncc(C#N)c(Nc4ccc(F)c(Cl)c4)c3c2)nn1 (stereo not drawn) [Example 574] is 3.5-fold higher in IC50: 0.02 µM for the first, 0.07 µM for the second.

Going from Fc1ccc(Nc2ncncc2-c2cccc(NCc3cnc[nH]3)c2)cc1Cl [Example 535] to N#Cc1cnc2c(Br)cc(NCc3cc(-c4ccccc4)[nH]n3)cc2c1Nc1ccc(F)c(Cl)c1 [Example 454], the IC50 falls from > 3 µM to 0.33 µM. The second is the more potent here.

Going from CCOC(=O)CNc1cc(Cl)c2ncc(C#N)c(Nc3ccc(F)c(Cl)c3)c2c1 [Example 475] to N#Cc1cnc2c(Cl)cc(NCC(=O)NCc3ccncc3)cc2c1Nc1ccc(F)c(Cl)c1 [Example 600], the IC50 falls from 1.4 µM to 0.048 µM (29-fold).

First: N#Cc1cnc2ccc(NCc3ccn[nH]3)cc2c1NC1CCCC1 [Example 413]
Second: N#Cc1cnc2ccc(NCc3cnc[nH]3)cc2c1NC1CCCCCC1 [Example 400]
The IC50 of the first is 3.3-fold higher: 1.6 µM for the first, 0.49 µM for the second.

CC(C)(C)Nc1c(C#N)cnc2ccc(NCc3ccc(S(N)(=O)=O)cc3)cc12 [Example 408] and N#Cc1cnc2ccc(NCc3ccccc3)cc2c1NC1CCCC1 [Example 415] are within 1.5-fold of each other in IC50: 21.9 µM for the first, 21.3 µM for the second.

same assay, conditions: Tpl2/Cot kinase, GST-MEK1 substrate, 50 uM ATP

First: N#Cc1cnc2c(Br)cc(NCc3cn(CC4CCCN4)nn3)cc2c1Nc1ccc(F)c(Cl)c1 (stereo not drawn) [Example 722]
Second: C=CCn1cc(CNc2cc(Br)c3ncc(C#N)c(Nc4ccc(F)c(Cl)c4)c3c2)nn1 [Example 732]
The IC50 of the first is 2.2-fold lower: 0.0092 µM for the first, 0.02 µM for the second. The first is the more potent here.

Going from CN1CCCC1CCNC(=O)Cn1cc(CNc2cc(Cl)c3ncc(C#N)c(Nc4ccc(F)c(Cl)c4)c3c2)nn1 (stereo not drawn) [Example 651] to COCCn1cc(CNc2cc(Cl)c3ncc(C#N)c(Nc4ccc(F)c(Cl)c4)c3c2)nn1 [Example 733], the IC50 rises from 0.0069 µM to 0.02 µM (2.9-fold). The first is the more potent here.

CN(C)C(=O)N1CCC(CCn2cc(CNc3cc(Cl)c4ncc(C#N)c(Nc5ccc(F)c(Cl)c5)c4c3)nn2)CC1 [Example 830] and CN(C)C(=O)Cn1cc(CNc2cc(Br)c3ncc(C#N)c(Nc4ccc(F)c(Cl)c4)c3c2)nn1 [Example 834] are within 1.5-fold of each other in IC50: 0.019 µM for the first, 0.014 µM for the second.

Going from COCCn1cc(CNc2cc(Br)c3ncc(C#N)c(Nc4ccc(F)c(Cl)c4)c3c2)nn1 [Example 698] to CN1CCCN(CCCn2cc(CNc3cc(Br)c4ncc(C#N)c(Nc5ccc(F)c(Cl)c5)c4c3)nn2)CC1 [Example 793], the IC50 rises from 0.018 µM to 0.07 µM (3.9-fold). The first is the more potent here.

Going from CC(=O)N1CCC(Nc2cc(Cl)c3ncc(C#N)c(Nc4ccc(F)c(Cl)c4)c3c2)CC1 [Example 873] to CN(C)CC1CCCCC1Nc1cc(Cl)c2ncc(C#N)c(Nc3ccc(F)c(Cl)c3)c2c1 (stereo not drawn) [Example 646], the IC50 rises from 0.66 µM to > 3 µM.

Compared with N#Cc1cnc2c(Cl)cc(NCc3cn(Cc4cccnc4)cn3)cc2c1Nc1ccc(F)c(Cl)c1 [Example 726], N#Cc1cnc2c(Br)cc(NCc3cn(Cc4cccnc4)cn3)cc2c1Nc1ccc(F)c(Cl)c1 [Example 706] is 2.3-fold lower in IC50: 0.007 µM for the first, 0.0031 µM for the second. The second is the more potent here.

With N#Cc1cnc2c(Br)cc(NCc3cn(Cc4ccccn4)cn3)cc2c1Nc1ccc(F)c(Cl)c1 [Example 785] the IC50 was 0.034 µM.

same assay, conditions: Tpl2/Cot kinase, GST-MEK1 substrate, 50 uM ATP, 1 h at 30° C.; Table 2

Going from CCNC(=O)N1CCC(n2cc(CNc3cc(Cl)c4ncc(C#N)c(Nc5ccc(F)c(Cl)c5)c4c3)nn2)CC1 [Example 931] to CC(C)(C)OC(=O)N1CCCC(n2cc(CNc3cc(Cl)c4ncc(C#N)c(Nc5ccc(F)c(Cl)c5)c4c3)nn2)CC1 (stereo not drawn) [Example 1006], the IC50 rises from 0.0189 µM to 0.24 µM (13-fold). The first is the more potent here.

N#Cc1cnc2c(Cl)cc(NCc3cn(CCN4CCCCC4)nn3)cc2c1NC1CCC1 [Example 954] and N#Cc1cnc2c(Cl)cc(NCc3cn(C4CCN(c5ncccc5C(F)(F)F)CC4)nn3)cc2c1Nc1ccc(F)c(Cl)c1 [Example 1008] are within 1.5-fold of each other in IC50: 0.52 µM for the first, 0.49 µM for the second.
